Reference: the supplement of paper PMC10307832

Key:
Assay in all cases: relative viability (nuclei count vs DMSO), 5 days (fraction); higher = more cells survive
[1] = compound: CC1=C(C=C(C=C1)NC(=O)C2=CC(=CC=C2)C(C)(C)C#N)NC3=CC4=C(C=C3)N=CN(C4=O)C [AZ628] + CC1(C)CCC(c2ccc(Cl)cc2)=C(CN2CCN(c3ccc(C(=O)NS(=O)(=O)c4ccc(N[C@H](CCN5CCOCC5)CSc5ccccc5)c(S(=O)(=O)C(F)(F)F)c4)cc3)CC2)C1 [Navitoclax] (partner 0.5 µM)
Procedure, shortened: (§1)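 Lung cancer cell lines were pin-tool dosed in 1536-well plates on the day after seeding, with either a lone drug or a fixed anchor-drug dose plus five library-drug doses (not always all listed) in √10 steps. Nuclei were counted on 4× images after 5 days. Relative viability is the ratio of treated-well to vehicle-well nuclei counts, with each value a median of duplicate plates.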

[2] = compound: C[As](C)SC[C@H](NC(=O)CC[C@H](N)C(=O)O)C(=O)NCC(=O)O [Darinaparsin] + NC(=O)Nc1cc(-c2cccc(F)c2)sc1C(=O)N[C@H]1CCCNC1 [AZD7762] (partner 0.2 µM)
Procedure, shortened: as §1

[3] = compound: C[As](C)SC[C@H](NC(=O)CC[C@H](N)C(=O)O)C(=O)NCC(=O)O [Darinaparsin] + Nc1ncn([C@H]2C[C@H](O)[C@@H](CO)O2)c(=O)n1 [Decitabine] (partner 2 µM)
Procedure, shortened: as §1

[4] = compound: C[As](C)SC[C@H](NC(=O)CC[C@H](N)C(=O)O)C(=O)NCC(=O)O [Darinaparsin] + O=C(CCCCCCC(=O)Nc1ccccc1)NO [Vorinostat] (partner 1 µM)
Procedure, shortened: as §1

Cell Line | relative viability ([1]; first compound 0.08 µM) | relative viability ([1]; first compound 0.253 µM) | relative viability ([1]; first compound 0.8 µM) | relative viability ([1]; first compound 2.53 µM) | relative viability ([1]; first compound 8 µM) | relative viability ([2]; first compound 0.08 µM) | relative viability ([2]; first compound 0.8 µM) | relative viability ([2]; first compound 2.53 µM) | relative viability ([2]; first compound 8 µM) | relative viability ([3]; first compound 0.08 µM) | relative viability ([3]; first compound 0.8 µM) | relative viability ([3]; first compound 2.53 µM) | relative viability ([3]; first compound 8 µM) | relative viability ([4]; first compound 0.08 µM) | relative viability ([4]; first compound 0.8 µM) | relative viability ([4]; first compound 2.53 µM) | relative viability ([4]; first compound 8 µM)
LOU-NH91 | 0.681 | 0.713 | 0.713 | 0.654 | 0.4 | 0.808 | 0.745 | 0.719 | 0.775 | 0.876 | 0.771 | 0.782 | 0.799 | 0.937 | 0.885 | 0.86 | 0.969
201T | 1.22 | 1.21 | 1.25 | 1.27 | 1.23 | 0.707 | 0.669 | 0.527 | 0.658 | 0.853 | 0.83 | 0.875 | 0.861 | 1.03 | 0.905 | 0.917 | 1.14
NCI-H1975 | 1.09 | 1.04 | 1.02 | 1.04 | 0.654 | 0.751 | 0.684 | 0.662 | 0.741 | 0.382 | 0.429 | 0.425 | 0.374 | 0.875 | 0.728 | 0.741 | 0.854
NCI-H1395 | 1.2 | 1.08 | 1.1 | 1.05 | 1.22 | 0.4 | 0.411 | 0.385 | 0.394 | 0.79 | 0.659 | 0.727 | 0.645 | 0.813 | 0.722 | 0.582 | 0.589
NCI-H441 | 0.565 | 0.508 | 0.765 | 0.902 | 0.633 | 1.2 | 1.08 | 0.815 | 1.13 | 0.255 | 0.21 | 0.245 | 0.19 | 1.15 | 0.751 | 0.847 | 0.884
HCC-366 | 1.01 | 1.09 | 0.997 | 0.97 | 0.598 | 0.339 | – | 0.222 | 0.332 | 0.407 | – | 0.413 | 0.352 | 0.454 | – | 0.339 | 0.436
NCI-H1915 | 0.764 | 0.768 | 0.79 | 0.689 | 0.584 | 0.768 | 0.738 | 0.674 | 0.729 | 0.288 | 0.239 | 0.254 | 0.256 | 0.502 | 0.468 | 0.485 | 0.579
